This is an account of results in PubChem BioAssay (NCI).

Holding throughout (test): NCI anticancer screen, dose series, 48 h
Assay [1] has as its system HT29 colon.
Assay [2] deals with K-562 leukemia.
In assay [3] the test system is M14 melanoma.
In assay [4] the test system is MALME-3M melanoma.
Assay [5] relates to NCI-H522 lung.
The test system of assay [6] is NCI/ADR-RES ovarian.
Assay [7] relates to OVCAR-4 ovarian.
In assay [8] the test system is OVCAR-8 ovarian.
The test system of assay [9] is SR leukemia.
The test system of assay [10] is UO-31 renal.

The structures appear in SMILES notation.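 96-well plates; 48 h exposure; 5 concentrations. Endpoints by linear interpolation between flanking doses. Not reached: highest tested concentration assigned. Here, GI50 denotes the concentration required for 50% inhibition of growth. TGI: total growth inhibition.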

On to `NCCN1C(=O)c2ccccc2C1(O)c1ccc(Cl)cc1` (configuration not stated), for which the TGI in assay [1] is 39.8 µM; in [2], 39 µM; in assay [3] it was 36 µM; in [4] it was 27.2 µM; in assay [5] it was 27.9 µM; in assay [6], greater than 100 µM. Further, the TGI in assay [7] is greater than 100 µM; in assay [8], greater than 100 µM; in assay [9], 36.6 µM.
Turning to `O=C(COc1ccc(-c2nc3cc(Cl)c(Cl)cc3[nH]2)cc1)N=Nc1c(O)[nH]c2ccccc12`, the GI50 in assay [1] was 1.14 µM; in assay [2], 0.675 µM; in [3], 4.17 µM; in assay [5], 2.55 µM; in [6] it was greater than 100 µM; in [8] it was 1.55 µM. Also, the values for the GI50 in [9] and in [10] were 0.803 µM and greater than 100 µM, respectively. The TGI in [1], in assay [2], in [3], in [5], in assay [6] and in assay [8] was greater than 100 µM in each case. Also, the TGI in [9] is 31.7 µM; in assay [10], greater than 100 µM.
Take `Cc1ccc(C(=O)N=Nc2c(O)[nH]c3ccc(Cl)cc23)cc1`: the GI50 in [1] is 19.8 µM; in [2] it was 16.2 µM; in [3], 22.7 µM; in assay [5], 20.2 µM; in assay [6], greater than 50 µM; in [7], 6.82 µM. For the same compound, the GI50 in assay [8] is 10.8 µM; in [9], greater than 50 µM; in assay [10], greater than 50 µM. Moreover, the TGI in assay [1] was greater than 50 µM; in [2], greater than 50 µM; in assay [3] it was greater than 50 µM; in [5] it was greater than 50 µM; in assay [6], greater than 50 µM; in assay [7], 18 µM. Also, the TGI in assay [8] was 32.4 µM; in [9], greater than 50 µM; in assay [10], greater than 50 µM.
Turning to `CCCCN1CCN(c2ccc3nc(-c4ccc5nc(-c6ccc(OCC)c(OCC)c6)[nH]c5c4)[nH]c3c2)CC1`, the GI50 in assay [1] is 0.802 µM; in [2], 0.529 µM; in assay [3], 0.314 µM; in assay [5], 1.2 µM; in assay [6] it was greater than 100 µM; in assay [7] it was 1.48 µM. In addition, the GI50 was 0.312 µM in assay [9] and 2 µM in [10]. In addition, the TGI in assay [1] is 2.97 µM; in [2], 2.27 µM; in assay [3], 1.55 µM; in assay [5], 3.97 µM; in assay [6], greater than 100 µM; in [7] it was 3.21 µM. In addition, the TGI in assay [9] is 1.19 µM; in assay [10] it was 5.8 µM.
As to `COC(=O)/C(=C\c1c(-c2ccccc2)[nH]c2ccccc12)S(C)(=O)=O`, the GI50 is 3.58 µM in [1]; 3.34 µM in assay [3]; 12.2 µM in assay [4]; 3.06 µM in assay [5]; 3.28 µM in assay [6]; 6.23 µM in assay [7]. Also, the results for the GI50 in [8], in [9] and in assay [10] were 6.29 µM, 8.08 µM and 5.49 µM, respectively. Besides, the TGI in [1] was 46.1 µM; in [3], greater than 100 µM; in [4], 44.2 µM; in assay [5] it was 14.5 µM; in assay [6] it was greater than 100 µM; in [7], greater than 100 µM. In addition, the TGI in [8] was greater than 100 µM; in assay [9], greater than 100 µM; in [10] it was 28.7 µM.
For `CN(C)CCNc1nc2ccccc2c2occc12`, the GI50 in [2] is 25.9 µM; in [3] it was 28.8 µM; in assay [5] it was 62.3 µM; in [6] it was 51.8 µM; in assay [7] it was 26.3 µM; in [8] it was 62.3 µM. Also, the GI50 was 21.3 µM in assay [9] and 26.1 µM in assay [10]. The TGI in [2] is 98.9 µM; in assay [3], 68.5 µM; in assay [5], greater than 100 µM; in assay [6], greater than 100 µM; in [7], 82.2 µM; in assay [8] it was greater than 100 µM. In addition, the TGI was 54.4 µM in [9] and greater than 100 µM in assay [10].
As for `COc1ccc(-c2nc(-c3nc4ccc(C(F)(F)F)cc4[nH]3)c3ccccn23)cc1`, the GI50 is 58.2 µM in assay [1]; 35.3 µM in [2]; 83.1 µM in [3]; greater than 100 µM in assay [4]; greater than 100 µM in [5]; 85.3 µM in assay [6]. For the same compound, the GI50 in assay [8] was 22.7 µM; in assay [9], 32.3 µM; in [10] it was greater than 100 µM. Besides, the TGI in assay [1], in [2], in assay [3], in assay [4], in [5] and in assay [6] was greater than 100 µM each time. Also, the TGI in assay [8], in assay [9] and in assay [10] was greater than 100 µM in each case.
In the case of `Cc1cc2c(cc1C)[n+](Cc1ccc3ccccc3n1)cn2Cc1ccc2ccccc2n1`, the GI50 was 0.331 µM in assay [1]; 0.527 µM in assay [2]; 0.586 µM in assay [3]; 0.783 µM in assay [4]; 0.704 µM in [5]; 16.7 µM in assay [6]. The GI50 in assay [7] is 1.24 µM; in assay [9] it was 1.12 µM; in [10], 1.33 µM. Moreover, the TGI in assay [1] was 1.63 µM; in [2], 3 µM; in assay [3], 2.42 µM; in assay [4] it was 2.56 µM; in assay [5], 2.47 µM; in assay [6], 50.9 µM. For the same compound, the TGI in assay [7] was determined as 4.09 µM; in assay [9], 3.21 µM; in [10] it was 2.84 µM.
As to `C[C@]12CC[C@@H]3c4ccc(O)cc4CC[C@H]3[C@@H]1CC[C@@H]2NS(=O)(=O)c1ccc2ccccc2c1`, the GI50 in assay [1] is 2.47 µM; in [2] it was 3.42 µM; in [3], 3.2 µM; in [4] it was 2.56 µM; in assay [6], 2.61 µM; in [7], 1.98 µM. Further, the GI50 was 3.16 µM in assay [8], 3.72 µM in assay [9] and 1.83 µM in [10]. Further, the TGI was 6.11 µM in assay [1]; greater than 100 µM in assay [2]; 10.5 µM in assay [3]; 8.06 µM in [4]; 8 µM in assay [6]; 9.36 µM in [7]. In addition, the TGI came to 11.8 µM in assay [8], 95 µM in assay [9] and 5.57 µM in assay [10].
With `CCCCCSC1C2C(=O)C(Br)=CC13CCNc1c(O)c4c5c(c13)=[N+]2CCC=5C=N4` (configuration not stated), the GI50 is 0.49 µM in assay [1]; 2.62 µM in assay [2]; 1.51 µM in [3]; 0.332 µM in assay [4]; 0.452 µM in assay [5]; 4.42 µM in [6]. In addition, the results for the GI50 in assay [7], in assay [9] and in [10] were 0.256 µM, 1.35 µM and 2.11 µM, respectively. Also, the TGI stood at 1.54 µM in assay [1]; 12.2 µM in assay [2]; 3.68 µM in assay [3]; 1.37 µM in assay [4]; 1.26 µM in [5]; 16.7 µM in assay [6]. In addition, the TGI in [7] was 0.609 µM; in assay [9] it was 14.7 µM; in assay [10] it was 4.42 µM.
Turning to `COc1ccc(C#CC2=C(c3cc(OC)c(OC)c(OC)c3)C(=O)OC2)cc1`, the GI50 in [1] is 2.66 µM; in [2], 2.11 µM; in assay [3], greater than 50 µM; in assay [5] it was 8.6 µM; in [6] it was 5.82 µM; in [7], 1.51 µM. Besides, the GI50 is 3.23 µM in assay [8], 2.09 µM in assay [9] and 18.9 µM in [10]. For the same compound, the TGI in assay [1] is greater than 50 µM; in [2], greater than 50 µM; in assay [3] it was greater than 50 µM; in assay [5], greater than 50 µM; in assay [6], 27.9 µM; in assay [7], greater than 50 µM. Also, the figures for the TGI in assay [8], in [9] and in assay [10] were 22.5 µM, greater than 50 µM and greater than 50 µM, respectively.
With `COC[C@@H](N=CN1CCc2cc(OC)c(OC)cc2C1)C(C)(C)C`, the TGI in [1], in assay [2], in [3], in [4], in [5] and in [7] was greater than 100 µM each time. The TGI in [8], in [9] and in assay [10] was greater than 100 µM in each case.
Regarding `C/C=C1\CCC2c3[nH]c4ccccc4c3CCN2C1` (configuration not stated), the TGI in assay [1] was greater than 100 µM; in [2], greater than 100 µM; in assay [3] it was 75.8 µM; in [4], greater than 100 µM; in assay [5] it was greater than 100 µM; in assay [7], greater than 100 µM. Besides, the TGI in [8], in [9] and in [10] was greater than 100 µM each time.
Regarding `O=c1cc(O)c2c(O)cc(O)cc2o1`, the TGI in assay [1], in assay [2], in [3], in assay [4], in [5] and in assay [6] was greater than 100 µM throughout. The TGI in assay [7], in assay [8] and in assay [9] was greater than 100 µM in each case.
As for `CC/C(CC(=O)CCC(=O)Nc1ccc(C)c(C)c1)=N\NC(=O)C(N)=O`, the TGI in assay [1], in [2], in assay [3], in [4], in assay [5] and in assay [7] was greater than 100 µM in each case. Moreover, the TGI in assay [8], in assay [9] and in assay [10] was greater than 100 µM in each case.
As to `Cc1ccc(S(=O)(=O)SCc2ccccc2)cc1`, the TGI came to 47.1 µM in assay [1]; 27.3 µM in assay [2]; 39.7 µM in assay [3]; 81.5 µM in assay [4]; 20.9 µM in assay [5]; 31.4 µM in assay [7]. Further, the results for the TGI in assay [8], in assay [9] and in [10] were 33.4 µM, 62.7 µM and greater than 100 µM, respectively.
As to `Cc1cc(NS(=O)(=O)c2ccc(NC(=O)COC(=O)c3cccc4c(=O)c5ccccc5[nH]c34)cc2)no1`, the TGI in assay [1], in assay [2], in assay [3], in assay [4], in assay [5] and in assay [7] was greater than 100 µM in each case. The TGI in assay [8], in [9] and in assay [10] was greater than 100 µM in each case.
`COc1cc2c(cc1OC)[C@@H]([C@H](O)c1ccccc1)NCC2`: the TGI in assay [1], in assay [2], in assay [3], in assay [4], in assay [5] and in [7] was greater than 100 µM each time. For the same compound, the TGI in assay [8], in assay [9] and in assay [10] was greater than 100 µM each time.
For the compound `COc1ccc2[nH]c(O)c(/C=c3/ccc4c(c3)N=C(c3ccc(F)cc3)N=4)c2c1`, the GI50 in [1] was 3.62 µM; in assay [2], 9.14 µM; in assay [3], 2.66 µM; in assay [4] it was 2.58 µM; in assay [5], 2.79 µM; in assay [6], 3.78 µM. Also, the GI50 in assay [8] is 2.07 µM; in assay [9], 4.95 µM; in assay [10], 1.95 µM. Further, the TGI is 16.8 µM in assay [1]; greater than 100 µM in assay [2]; 11.1 µM in assay [3]; 6.32 µM in [4]; 8.09 µM in [5]; 24.4 µM in [6]. In addition, the results for the TGI in assay [8], in [9] and in assay [10] were 5.32 µM, greater than 100 µM and 5.01 µM, respectively.
For the compound `Clc1ccc(C2=NOC3C4CCC(C4)C23)cc1` (configuration not stated), the TGI in [1], in assay [2], in assay [3], in assay [4], in assay [5] and in assay [7] was greater than 100 µM in each case. In addition, the TGI in [8], in assay [9] and in assay [10] was greater than 100 µM each time.
Turning to `CCOP(=O)(CC(=O)C1=C(O)C(CCCCNC(=O)OC(C)(C)C)N(Cc2ccccc2)C1=O)OCC` (configuration not stated), the TGI in assay [1], in [2], in assay [3], in assay [4], in assay [5] and in [7] was greater than 100 µM each time. Moreover, the TGI in assay [8], in assay [9] and in assay [10] was greater than 100 µM in each case.
